Experimental data taken from patent publication US20260217667A1, “AMYLOID TARGETING AGENTS” (Amydis, Inc., priority 2023, published 2026).

Experiments:
[1] = target: TAR DNA-binding protein 43 (TDP43) (Homo sapiens, UniProt Q13148); experiment: Fluorescence emission spectra of compounds with and without aggregated TDP43
Method: (§1) Emission spectra for compound 1 and compound 1a were collected after incubation of the compounds with and without aggregated amyloidogenic protein at specific excitation wavelengths (450 nm and 488 nm) employed in standard ocular imaging equipment. Amyloidogenic proteins (synthetic aggregated amyloid beta (Aβ), α-synuclein (ASYN), transthyretin (TTR), TAR DNA-binding protein 43 (TDP43), and phosphorylated tau (TAU)) were aggregated in vitro using the following procedure. The amyloidogenic protein was removed from the freezer and allowed to warm to room temperature, then 1 mg of amyloidogenic protein was dissolved in 215 μL of ddH2O for about 10-20 mins at room temperature. To the resulting solution, 2 mL of ddH2O was added to provide a 100 μM stock solution. A 100 μL aliquot was sampled and frozen (non-aggregated sample). The tubes were placed in a thermoshaker at 350 rpm for 3 days. Care was taken to avoid generating bubbles. Protein aggregation was confirmed by measuring binding to Thioflavin T (ThT). Aggregated protein was then portioned into 150 μL aliquots and stored at −80° C. The fluorescent emission spectra were measured as follows to determine binding of synthetic aggregated amyloid beta (Aβ), α-synuclein (ASYN), transthyretin (TTR), TAR DNA-binding protein 43 (TDP43), and phosphorylated tau (TAU) to test compounds described herein. The Shimadzu fluorimeter was turned on and allowed to warm up for ~60 minutes. The test compounds were then removed from the −20° C. freezer and were allowed to warm to room temperature. The 100 μM aggregated Aβ solution was then removed from the −80° C. freezer and also allowed to warm to room temperature. 250 μM solutions of each test compound in DMSO were then prepared. These were then used to prepare 4 μM solutions of each test compound, with and without 5 μM aggregated Aβ in 1×PBS, in triplicates. Using a cuvette, the fluorescent emission spectra were measured for each test compound+Aβ solution, employing a DMSO/PBS solution as a blank. Each sample was tested at an excitation of 450 nm and 488 nm. Fluorescent emission spectra were then collected for each 4 μM test compound solution alone. The resulting data were used to plot intensity vs. wavelength for each emission scan. The fold increase at maximum emission (compound+Aβ/compound) is calculated for each test compound.

[2] = tested on: amyloidogenic aggregates (Aβ, ASYN, TTR, TDP43, 3RTau, and 4RTau); experiment: In vitro binding to amyloidogenic aggregates, summary statement; details: excitation 450 nm or 488 nm
Method: Amyloidogenic proteins (synthetic aggregated amyloid beta (Aβ), α-synuclein (ASYN), transthyretin (TTR), TAR DNA-binding protein 43 (TDP43), and phosphorylated tau (TAU)) were aggregated in vitro using the following procedure. The amyloidogenic protein was removed from the freezer and allowed to warm to room temperature, then 1 mg of amyloidogenic protein was dissolved in 215 μL of ddH2O for about 10-20 mins at room temperature. To the resulting solution, 2 mL of ddH2O was added to provide a 100 μM stock solution. A 100 μL aliquot was sampled and frozen (non-aggregated sample). The tubes were placed in a thermoshaker at 350 rpm for 3 days. Care was taken to avoid generating bubbles. Protein aggregation was confirmed by measuring binding to Thioflavin T (ThT). Aggregated protein was then portioned into 150 μL aliquots and stored at −80° C.
The fluorescent emission spectra were measured as follows to determine binding of synthetic aggregated amyloid beta (Aβ), α-synuclein (ASYN), transthyretin (TTR), TAR DNA-binding protein 43 (TDP43), and phosphorylated tau (TAU) to test compounds described herein. […] Using a cuvette, the fluorescent emission spectra were measured for each test compound+Aβ solution, employing a DMSO/PBS solution as a blank. […] The fold increase at maximum emission (compound+Aβ/compound) is calculated for each test compound. […]

α-synuclein (ASYN) = α-synuclein (ASYN) (Homo sapiens, UniProt P37840); experiment: Fluorescence emission spectra of compounds with and without aggregated α-synuclein; assay type: binding
Method: as §1

3RTau = experiment: Fluorescence emission spectra of compounds with and without aggregated 3RTau; assay type: binding
Method: as §1

[3] = target: T1, synthetic aggregated amyloid beta (Aβ) (Homo sapiens, UniProt P05067); experiment: Fluorescence emission spectra of compounds with and without aggregated amyloid beta; assay type: binding; details: for Fold Increase at maximum emission (compound+Aβ/compound): 4 μM compound, 5 μM aggregated Aβ in 1×PBS; for Peak emission: aggregated Aβ
T1 construct: synthetic aggregated amyloid beta (Aβ)
T1 sequence (P05067 672-713 limits assumed): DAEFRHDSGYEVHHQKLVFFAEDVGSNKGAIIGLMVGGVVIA
Method: as §1

transthyretin (TTR) = transthyretin (TTR) (Homo sapiens, UniProt P02766); experiment: Fluorescence emission spectra of compounds with and without aggregated transthyretin; assay type: binding
Method: as §1

4RTau = experiment: Fluorescence emission spectra of compounds with and without aggregated 4RTau; assay type: binding
Method: as §1

TAR DNA-binding protein 43 (TDP43), sequence (Q13148 whole entry): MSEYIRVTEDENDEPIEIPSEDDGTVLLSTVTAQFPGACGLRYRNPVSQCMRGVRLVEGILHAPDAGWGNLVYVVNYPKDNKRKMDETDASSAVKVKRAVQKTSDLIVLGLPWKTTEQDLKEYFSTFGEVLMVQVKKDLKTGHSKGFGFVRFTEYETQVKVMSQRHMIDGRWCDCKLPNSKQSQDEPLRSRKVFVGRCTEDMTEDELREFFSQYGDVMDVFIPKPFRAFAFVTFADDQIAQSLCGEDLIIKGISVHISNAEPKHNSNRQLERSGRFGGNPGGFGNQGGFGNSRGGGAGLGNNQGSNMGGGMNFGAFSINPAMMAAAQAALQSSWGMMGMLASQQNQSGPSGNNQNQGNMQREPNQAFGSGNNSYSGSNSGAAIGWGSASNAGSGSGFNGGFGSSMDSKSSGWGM

N#C/C(=C\c1ccc2cc(N3CCCCC3)ccc2c1)C(=O)CCCOCCOCCO [Compound 1, (E)-6-(2-(2-hydroxyethoxy)ethoxy)-3-oxo-2-((6-(piperidin-1-yl)naphthalen-2-yl)methylene)hexanenitrile]
Fold Increase at maximum emission ([1]; excitation 450 nm): 15.33
Peak emission ([1]; excitation 450 nm): 547
Fold Increase at maximum emission ([1]; excitation 488 nm): 18.32
Peak emission ([1]; excitation 488 nm): 556
Binding to all amyloidogenic aggregates tested [2]: successfully bound
Fold Increase at maximum emission (α-synuclein (ASYN); excitation 450 nm): 105.50
Peak emission (α-synuclein (ASYN); excitation 450 nm): 552
Fold Increase at maximum emission (α-synuclein (ASYN); excitation 488 nm): 109.97
Peak emission (α-synuclein (ASYN); excitation 488 nm): 557
Fold Increase at maximum emission (3RTau; excitation 450 nm): 68.04
Fold Increase at maximum emission (3RTau; excitation 488 nm): 69.31
Fold Increase at maximum emission (compound+Aβ/compound) ([3]; excitation 450 nm): 10.16
Peak emission ([3]; excitation 450 nm): 559
Fold Increase at maximum emission (compound+Aβ/compound) ([3]; excitation 488 nm): 9.11
Peak emission ([3]; excitation 488 nm): 556
Fold Increase at maximum emission (transthyretin (TTR); excitation 450 nm): 5.18
Peak emission (transthyretin (TTR); excitation 450 nm): 553
Fold Increase at maximum emission (transthyretin (TTR); excitation 488 nm): 7.21
Peak emission (transthyretin (TTR); excitation 488 nm): 560
Fold Increase at maximum emission (4RTau; excitation 450 nm): 14.35
Fold Increase at maximum emission (4RTau; excitation 488 nm): 29.25

N#C/C(=C\c1ccc2cc(N3CCCCC3)ccc2c1)C(=O)CCC(O)CO (stereo not drawn) [Compound 1a, (E)-6,7-dihydroxy-3-oxo-2-((6-(piperidin-1-yl)naphthalen-2-yl)methylene)heptanenitrile]
Fold Increase at maximum emission ([1]; excitation 450 nm): 23.23
Peak emission ([1]; excitation 450 nm): 551
Fold Increase at maximum emission ([1]; excitation 488 nm): 20.40
Peak emission ([1]; excitation 488 nm): 551
Binding to all amyloidogenic aggregates tested [2]: successfully bound
Fold Increase at maximum emission (α-synuclein (ASYN); excitation 450 nm): 120.92
Peak emission (α-synuclein (ASYN); excitation 450 nm): 554
Fold Increase at maximum emission (α-synuclein (ASYN); excitation 488 nm): 190.64
Peak emission (α-synuclein (ASYN); excitation 488 nm): 554
Fold Increase at maximum emission (3RTau; excitation 450 nm): 84.37
Fold Increase at maximum emission (3RTau; excitation 488 nm): 103.65
Fold Increase at maximum emission (compound+Aβ/compound) ([3]; excitation 450 nm): 9.48
Peak emission ([3]; excitation 450 nm): 554
Fold Increase at maximum emission (compound+Aβ/compound) ([3]; excitation 488 nm): 19.60
Peak emission ([3]; excitation 488 nm): 559
Fold Increase at maximum emission (transthyretin (TTR); excitation 450 nm): 4.67
Peak emission (transthyretin (TTR); excitation 450 nm): 550
Fold Increase at maximum emission (transthyretin (TTR); excitation 488 nm): 7.35
Peak emission (transthyretin (TTR); excitation 488 nm): 557
Fold Increase at maximum emission (4RTau; excitation 450 nm): 22.19
Fold Increase at maximum emission (4RTau; excitation 488 nm): 22.48
